Source: US12227514B2, “Crystal forms of thiophene derivatives” (TIANJIN HEMAY PHARMACEUTICAL CO., LTD., priority 2018, dated 2025)

Assays:
Type in all cases: physicochemical
[1] = High temperature stability and high temperature and high humidity stability; details: for Relevant Substance Contents after 1 Month: storage at 40° C.
Experimental: High Temperature Stability and High Temperature and High Humidity Stability Crystal form I of (S)—N-[5-[1-(3-ethoxy-4-methoxyphenyl)-2-(methylsulfonyl)ethyl]-4,6-dioxo-5,6-dihydro-4H-thieno[3,4-c]pyrrole-1-yl]acetamide was placed at 40° C. (high temperature) or at 40° C. and Rh=75% (high temperature and high humidity) for 1 month. Relevant substance contents of crystal form I of (S)—N-[5-[1-(3-ethoxy-4-methoxyphenyl)-2-(methylsulfonyl)ethyl]-4,6-dioxo-5,6-dihydro-4H-thieno[3,4-c]pyrrole-1-yl]acetamide were tested after 1 month.

[2] = Pressure stability (tablet press, DSC); details: single punch tablet press, tablet diameter 6 mm, hardness 25-30 N
Experimental: Crystal form I of (S)—N-[5-[1-(3-ethoxy-4-methoxyphenyl)-2-(methylsulfonyl)ethyl]-4,6-dioxo-5,6-dihydro-4H-thieno[3,4-c]pyrrole-1-yl]acetamide was pressed by tablet press machine with single punch. The diameter of the tablet was 6 mm and the hardness was 25-30 N. DSC test was carried out on pressed powder.

Illumination stability = assay: Illumination stability
Experimental: Crystal form I of (S)—N-[5-[1-(3-ethoxy-4-methoxyphenyl)-2-(methylsulfonyl)ethyl]-4,6-dioxo-5,6-dihydro-4H-thieno[3,4-c]pyrrole-1-yl]acetamide was placed in a 4500 lux of illumination box for 1 month. Crystal form stability of (S)—N-[5-[1-(3-ethoxy-4-methoxyphenyl)-2-(methylsulfonyl)ethyl]-4,6-dioxo-5,6-dihydro-4H-thieno[3,4-c]pyrrole-1-yl]acetamide was tested after 1 month.

[3] = Moisture absorption stability; details: RH=80%
Experimental: Crystal form I of (S)—N-[5-[1-(3-ethoxy-4-methoxyphenyl)-2-(methylsulfonyl)ethyl]-4,6-dioxo-5,6-dihydro-4H-thieno[3,4-c]pyrrole-1-yl]acetamide was placed in a drier containing saturated ammonium chloride solution (RH=80%) until weight was balanced. The crystal form stability of (S)—N-[5-[1-(3-ethoxy-4-methoxyphenyl)-2-(methylsulfonyl)ethyl]-4,6-dioxo-5,6-dihydro-4H-thieno[3,4-c]pyrrole-1-yl]acetamide was tested after weight was balanced.

[4] = Dissolution rate in water; details: about 25 mg in 900 mL water, 37° C., rotating speed 100/minute
Experimental: The crystal form I of (S)—N-[5-[1-(3-ethoxy-4-methoxyphenyl)-2-(methylsulfonyl)ethyl]-4,6-dioxo-5,6-dihydro-4H-thieno[3,4-c]pyrrole-1-yl]acetamide prepared according to the process in Example 1 was tested.
About 25 mg of crystal form I of (S)—N-[5-[1-(3-ethoxy-4-methoxyphenyl)-2-(methylsulfonyl)ethyl]-4,6-dioxo-5,6-dihydro-4H-thieno[3,4-c]pyrrole-1-yl]acetamide was added to 900 mL of water. The mixture was stirred at a rotating speed of 100/minute at 37° C. for 90 minutes. The supernatant was filtered and diluted. The concentration of the diluted solution (a mg/mL) was determined by ultraviolet spectrophotometer. The dissolution rate was calculated according to the formula 900a/25×100%.

## CCOc1cc([C@@H](CS(C)(=O)=O)N2C(=O)c3csc(NC(C)=O)c3C2=O)ccc1OC [crystal form I, (S)—N-[5-[1-(3-ethoxy-4-methoxyphenyl)-2-(methylsulfonyl)ethyl]-4,6-dioxo-5,6-dihydro-4H-thieno[3,4-c]pyrrole-1-yl]acetamide]
[1]; 40° C. or 40° C. and RH 75%, 1 month
  Chemical stability under high temperature and high-temperature and high-humidity conditions: good chemical stability
[1]; before storage
  Relevant Substance Contents at Day 0: 0.06%
[1]
  Relevant Substance Contents after 1 Month: 0.07%
[1]; RH = 75%
  Relevant Substance Contents after 1 Month: 0.09%
[2]
  Pressure stability (DSC curve of pressed powder compared with FIG. 2): good stability
Illumination stability; 4500 lux illumination box
  Relevant Substance Contents after 1 Month: 0.06%
Illumination stability; 4500 lux, 1 month
  Chemical stability under illumination conditions: good chemical stability
Illumination stability; before illumination
  Relevant Substance Contents at Day 0: 0.06%
[3]
  Crystal form stability under high humidity conditions: good crystal form stability
[4]; time 15 min
  Dissolution Rate: 40.0%
[4]; time 30 min
  Dissolution Rate: 55.9%
[4]; time 45 min
  Dissolution Rate: 65.2%
[4]; time 60 min
  Dissolution Rate: 71.4%
[4]; time 75 min
  Dissolution Rate: 75.5%
[4]; time 90 min
  Dissolution Rate: 78.0%
